Source: the supplement of paper PMC10307832

Experiments:
Test in all cases: relative viability (nuclei count vs DMSO), 5 days (fraction); higher = more cells survive
[1] = compound: CCC1=CN=CN=C1N2CCN(CC2)CC3=NC4=C(N3)C=C(C=C4)C(F)(F)F + Cc1cc(Nc2cc(N3CCN(C)CC3)nc(Sc3ccc(NC(=O)C4CC4)cc3)n2)n[nH]1 [Tozasertib] (partner 0.1 µM)
Procedure, shortened: (§1)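 Relative viability divides the nuclei count in treated wells by that in vehicle wells. Lung cancer cell lines were seeded in 1536-well plates, dosed by pin tool the next day, and fixed and stained after 5 days in one step with final 0.05% Triton X-100, 1% formaldehyde and 1 ug/ml Hoechst. Dosing was a single drug or a fixed anchor-drug dose plus five library-drug doses (not always all listed) in √10 steps, and values are medians of duplicate plates imaged at 4×.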

Mirin + Navitoclax = compound: N=C1NC(=O)/C(=C/c2ccc(O)cc2)S1 [Mirin] + CC1(C)CCC(c2ccc(Cl)cc2)=C(CN2CCN(c3ccc(C(=O)NS(=O)(=O)c4ccc(N[C@H](CCN5CCOCC5)CSc5ccccc5)c(S(=O)(=O)C(F)(F)F)c4)cc3)CC2)C1 [Navitoclax] (partner 0.5 µM)
Procedure, shortened: as §1

[2] = compound: CCn1c(-c2nonc2N)nc2cnc(Oc3cccc(NC(=O)c4ccc(OCCN5CCOCC5)cc4)c3)cc21 + CC(=O)c1c(C)c2cnc(Nc3ccc(N4CCNCC4)cn3)nc2n(C2CCCC2)c1=O [Palbociclib] (partner 0.5 µM)
Procedure, shortened: as §1

[3] = compound: CCC1=CN=CN=C1N2CCN(CC2)CC3=NC4=C(N3)C=C(C=C4)C(F)(F)F + O=C(c1cc(Cc2n[nH]c(=O)c3ccccc23)ccc1F)N1CCN(C(=O)C2CC2)CC1 [Olaparib] (partner 8 µM)
Procedure, shortened: as §1

Cell Line UMC-11 has a relative viability ([1]; first compound 0.04 µM) of 0.197, a relative viability ([1]; first compound 0.1265 µM) of 0.216 and a relative viability ([1]; first compound 0.4 µM) of 0.216. It also gave a relative viability ([1]; first compound 1.265 µM) of 0.204, a relative viability ([1]; first compound 4 µM) of 0.214 and a relative viability (Mirin + Navitoclax; first compound 0.25 µM) of 0.324. The relative viability (Mirin + Navitoclax; first compound 0.7906 µM) was 0.312, the relative viability (Mirin + Navitoclax; first compound 2.5 µM) was 0.283 and the relative viability (Mirin + Navitoclax; first compound 7.906 µM) was 0.276. For the same cell line, the relative viability (Mirin + Navitoclax; first compound 25 µM) was 0.209, the relative viability ([2]; first compound 0.04 µM) was 0.277 and the relative viability ([2]; first compound 0.1265 µM) was 0.379. For the same cell line, the relative viability ([2]; first compound 0.4 µM) was 0.269, the relative viability ([2]; first compound 1.265 µM) was 0.151 and the relative viability ([2]; first compound 4 µM) was 0.248. For the same cell line, the relative viability ([3]; first compound 0.04 µM) was 0.393, the relative viability ([3]; first compound 0.1265 µM) was 0.392 and the relative viability ([3]; first compound 0.4 µM) was 0.359. The relative viability ([3]; first compound 1.265 µM) was 0.32 and the relative viability ([3]; first compound 4 µM) was 0.332.
